In US8697839B2, “GQ protein competitive inhibitory polypeptides, preparation methods and uses thereof” (Third Military Medical University, priority 2008, dated 2014):
Marks after values point to notes of the source that are not given here.

Tests used:
[1] = clinical dosage converted into the dosage in the mouse; cited from earlier work
[2] = system: rats with spontaneous hypertension (SHR); assay: myocardial remodeling and blood pressure in rats with spontaneous hypertension (SHR); assay type: in vivo, rat; conditions: losartan 6 mg/kg intragastric qd
Protocol: 1. Thirty 13-week-old rats with spontaneous hypertension (SHR, purchased from Beijing Vital River Laboratory Animal Technology Co. Ltd., Beijing) were selected and randomly assigned into five groups with 6 rats per group:
SHR model group (Vehicle): 0.9% physiological saline, intraperitoneal injection at a dosage of 5 ml/kg, bid.
Positive control group (losartan): potassium losartan at a dosage of 6 mg/kg, intragastric administration, qd.
The pentadecapeptide group: administration of the pentadecapeptide at a dosage of 30 μg/kg by intraperitoneal injection, bid.
The heptacosapeptide group: administration of the heptacosapeptide at a dosage of 30 μg/kg by intraperitoneal injection, bid.
The pantapentacontapeptide group: administration of the pantapentacontapeptide at a dosage of 30 μg/kg by intraperitoneal injection, bid.
Six of INKY (Wistar-Kyoto) rats (purchased from Center for Experimental Animals, Third Military Medical University) were additionally selected as the normal control.
2. Intervention with the drug was performed consecutively for eight weeks (from Week 14 to Week 21). The body weights of all the tested rats were obtained once every two weeks, and the administration dosage was adjustedbased on body weights.

[3] = echocardiography, SHR, x ± s, n = 6

CCCCc1nc(Cl)c(CO)n1Cc1ccc(-c2ccccc2-c2nn[nH]n2)cc1 [Losartan, potassium losartan]
ratio of mouse LD50/routine dosage [1]: 349 | Systolic blood pressure of artery ([2]; 0 w, SHR, x ± s, n = 6): 178.3 ± 2.24 mmHg | Systolic blood pressure of artery ([2]; 2 w, SHR, x ± s, n = 6): 165.1 ± 4.80 mmHg | Systolic blood pressure of artery ([2]; 4 w, SHR, x ± s, n = 6): 177.1 ± 8.27 mmHg | Systolic blood pressure of artery ([2]; 6 w, SHR, x ± s, n = 6): 178.3 ± 6.23 mmHg | Systolic blood pressure of artery ([2]; 8 w, SHR, x ± s, n = 6): 172.6 ± 4.82 mmHg | EF (ejection fraction) [2, 3]: 88.8 ± 2.62% | FS (shortening fraction) [2, 3]: 53.6 ± 3.57% | IVST (intervertricular septum thickness) [2, 3]: 1.87 ± 0.18 mm | LAD (left atrium sinistrum diameter) [2, 3]: 3.25 ± 0.23 mm | LVEDD (left ventricular end diastolic diameter) [2, 3]: 5.05 ± 0.42 mm | LVESD [2, 3]: 2.33 ± 0.18 mm | PWT (left ventricular posterior wall thickness) [2, 3]: 2.25 ± 0.21 mm | SV (stroke volume) [2, 3]: 0.21 ± 0.04 mL | HI ([2]; eight weeks, SHR, x ± s, n = 6): 3.48 ± 0.05 mg/g | HW ([2]; eight weeks, SHR, x ± s, n = 6): 1003 ± 16 mg | LVI ([2]; eight weeks, SHR, x ± s, n = 6): 2.74 ± 0.28 mg/g | LVW ([2]; eight weeks, SHR, x ± s, n = 6): 789 ± 88 mg | morphology of the cardiac muscle tissues, light microscope ([2]; FIG. 2): Pathological changes are somewhat improved | ultrastructure of the SHR cardiocyte, transmission electron microscope ([2]; FIG. 5): morphology of the cellular nucleus is essentially normal and somewhat irregular | CSA in comparison with the model group ([2]; P<0.01): significantly decreased | CSA (cross section area of the cardiocyte) ([2]; SHR, x ± s, n = 6): 335 ± 20** μm^2 | TDM (trans diameter of the cardiocyte) ([2]; SHR, x ± s, n = 6): 13.83 ± 2.54 μm
